According to patent US20200345689A1, “METHODS AND CO[…] RRx-001 FOR RADIOPROTECTION” (EpicentRx, Inc., priority 2018, published 2020):

Key:
CD2F1 male mice = experiment: 30-day survival following lethal total body irradiation; format: in vivo
Experimental: In this Example, the effects of systemic administration of RRx-001 on survival in response to a lethal dose of radiation was assayed in mice. CD2F1 male mice 9.5-11 weeks old were administered a single dose of RRx-001 by intraperitoneal (IP) injection 24 hours prior to a lethal radiation dose. 24 mice received 10 mg/kg RRx-001 (formulated in 5% DMSO in sterile H2O) and 24 mice received the vehicle control (5% DMSO in sterile H2O only).
The mice were subjected to total body irradiation (TBI) with 9.35 Gy (LD70/30) at 0.6 Gy/min using High-level Cobalt-60. Unanesthetized mice were placed in well-ventilated Plexiglas restrainers and irradiated bilaterally. Sham-irradiated mice were also placed in identical Plexiglas restrainers and kept in a room shielded from irradiation at the same time. In each experiment, the dose to the abdominal cores of the animals was delivered at a dose rate of approximately 0.6 Gy/min. Dosimetry was performed prior to the irradiation of the animals using the highly accurate alanine/electron spin resonance (ESR) dosimetry system (American Society for Testing and Materials, Standard E 1607) to measure dose rates (to water) in the cores of acrylic mouse phantoms, which were located in the compartments of the exposure rack. A calibration curve based on standard alanine calibration dosimeters provided by the National Institute of Standards and Technology (NIST, Gaithersburg, Md.) was used to measure the doses. The accuracy of the dose rate calibrations has been verified several times using the services of the National Physics Laboratory (UK National Standards Laboratory, London, UK) and the M.D. Anderson Cancer Center (Houston, Tex.). The corrections applied to the measured dose rates in the phantoms were for a small difference in the Co-60 energy between the mass energy-absorption coefficients for soft tissue and water, as well as source decay. The radiation field was uniform within ±1.2%.
Mice were monitored at least twice a day for 30 days post-irradiation. During the critical period (days 10-20), mice were monitored at least three times a day with no more than 10 hours between observations. Mice displaying any signs of discomfort received food in their cage as a wet mash. Mice displaying overt dyspnea, weight loss, lethargy, or other markers of moribundity and appearing to be in distress were humanely euthanized in a separate room using carbon dioxide gas followed by cervical dislocation after breathing stopped as a confirmatory method of euthanasia. This experiment was repeated for a total of n=24 mice per group.
Survival curves were estimated using the Kaplan-Meier method and were compared using a two-sided log-rank test at the 0.05 significance level. P-values were considered statistically significant if less than 0.05.

SOD1 and 2 = experiment: Western blot of ARE protein expression in hMSC: SOD1 and 2; format: cell-based, human; conditions: 5 mM RRx-001 for 16 hours, 8 hours after 10 Gy irradiation
Experimental: Antioxidant response element (ARE) genes such as heme oxygenase 1 (HO-1), NAD(P)H Dehydrogenase [Quinone] 1 (NQO-1) and Superoxide Dismutase (SOD) are involved in the detoxification and elimination of reactive oxidants.
Expression of ARE proteins was assayed in hMSC, macrophages, and monocytes following in vitro irradiation of the cells, which were pretreated with RRx-001 or vehicle. Protein expression was assayed by Western blotting and protein quantification.
hMSC were treated for 16 hours with […] RRx-001 or the vehicle control (0.05% DMSO), irradiated at 10 Gy or sham-irradiated and the protein collected 8 or 24 hours post-sham or irradiation. Human monocytic leukemic THP-1 and U937 cells were differentiated into macrophages with 50 nM Phorbol 12-myristate 13-acetate (PMA) for 24 hours before treatment. Differentiated and non-differentiated cells were treated with […] RRx-001 or 0.05% DMSO (vehicle control) for 16 hours prior to radiation. The cells were irradiated at 5 Gy or sham-irradiated and collected 4-8 hours later for both analysis. For each experiment, duplicates of each sample were run.

[1] = tested on: human monocytic leukemic THP-1 cells; experiment: Cytokine array of irradiated THP-1 monocytes and macrophages; format: cell-based
Experimental: A cytokine array was employed to examine cytokine expression following in vitro irradiation of human monocytic leukemic THP-1 cells. THP-1 cells were differentiated into macrophages with 50 nM Phorbol 12-myristate 13-acetate (PMA) for 24 hours before treatment. Differentiated and non-differentiated cells were treated with […] RRx-001 or 0.05% DMSO (vehicle control) for 16 hours prior to radiation. The cells were irradiated at 5 Gy or sham-irradiated and collected 4-8 hours later for both analysis. For the cytokine analysis, cell media was collected and blotted onto Proteome Profiler Human Cytokine Arrays (R&D Systems, Inc.) according to the manufacturer's protocol.

[2] = 10 mg/kg 24 hours prior to lethal TBI, vs vehicle control

## O=C(CBr)N1CC([N+](=O)[O-])([N+](=O)[O-])C1 [RRx-001, 2-bromo-1-(3,3-dinitroazetidin-1-yl)ethan-1-one]
CD2F1 male mice; [2]
  increase in mean survival time: 7 days
  increase in survival: 33.4%
CD2F1 male mice; 10 mg/kg IP 24 hours prior to 9.35 Gy TBI, 30-day observation, N=24/group
  survival times, means±standard errors: 27.2 ± 1.1 days
CD2F1 male mice; one dose of 10 mg/kg IP 24 hours prior to 9.35 Gy (LD70/30) TBI, vs vehicle control irradiated mice
  reduction in the 30-day death risk: ~33.4%
SOD1 and 2
  SOD1 and 2 expression: slight increase
[1]; THP-1 macrophage fraction, 3 mM RRx-001 for 16 hours, sham and 5 Gy irradiated
  cytokine expression (cytokine array): reduction in cytokines involved in inflammation
[1]; THP-1 monocytes, 3 mM RRx-001 for 16 hours
  CCL5/RANTES expression (cytokine array): induction
[1]; macrophages
  pro-inflammatory chemokine IL-8: reduction
